Format in all cases: in vivo, human
Data set [1] has as its system obese or overweight adults with type 2 diabetes. As to the kind of experiment: Exposure–HbA1c analysis, Trial 2. As to conditions: Trial 2, type 2 diabetes, corresponds to ∼500 nM × h.
Data set [2] has as its system obese or overweight adults. The experiment in a line: Exposure–body weight loss analysis, clinical Trials 1–3. Particulars: Trial 1, liraglutide 3.0 mg, overall female population.
Data set [3] deals with obese or overweight adults. The experiment in a line: Exposure–safety outcome analyses.

With `CCCCCCCCCCCCCCCC(=O)N[C@@H](CCC(=O)NCCCC[C@H](NC(=O)[C@H](C)NC(=O)[C@H](C)NC(=O)[C@H](CCC(N)=O)NC(=O)CNC(=O)[C@H](CCC(=O)O)NC(=O)[C@H](CC(C)C)NC(=O)[C@H](Cc1ccc(O)cc1)NC(=O)[C@H](CO)NC(=O)[C@H](CO)NC(=O)[C@@H](NC(=O)[C@H](CC(=O)O)NC(=O)[C@H](CO)NC(=O)[C@@H](NC(=O)[C@H](Cc1ccccc1)NC(=O)[C@@H](NC(=O)CNC(=O)[C@H](CCC(=O)O)NC(=O)[C@H](C)NC(=O)[C@@H](N)Cc1cnc[nH]1)[C@@H](C)O)[C@@H](C)O)C(C)C)C(=O)N[C@@H](CCC(=O)O)C(=O)N[C@@H](Cc1ccccc1)C(=O)N[C@H](C(=O)N[C@@H](C)C(=O)N[C@@H](Cc1c[nH]c2ccccc12)C(=O)N[C@@H](CC(C)C)C(=O)N[C@H](C(=O)N[C@@H](CCCNC(=N)N)C(=O)NCC(=O)N[C@@H](CCCNC(=N)N)C(=O)NCC(=O)O)C(C)C)[C@@H](C)CC)C(=O)O` [liraglutide, Liraglutide], the “liraglutide plasma concentration at which HbA1c reduction plateaued” value in data set [1] is recorded as around 21 nM. Moreover, in data set [2], the weight loss is given as 9.3 kg and the “weight loss from baseline” value turned out to be 9.2%. The “effect on serum calcitonin levels” value in data set [3] (all three trials, change from baseline over all exposure quantiles) is listed as “did not result in elevated serum calcitonin levels”. Also, in data set [3] (liraglutide-treated individuals, doses 1.2–3.0 mg, Trials 1–3), the “increase in mean resting pulse versus placebo” value is 2–3 beats per min.

Source of the values: article PMC5069568 (Diabetes, Obesity & Metabolism, 2016).
